Test results reported in patent US6150414A, “Compositions and methods for treating viral infections” (priority 1992, dated 2000).
“And” between values parts separate entries of the source, which are not always exact repeats. Equal values may be shown once. Read-outs that look alike come from different tables or passages of the source.

Tests used:
Friend Leukemia Virus = experiment: Inhibition of Friend Leukemia Virus-induced splenomegaly in mice, compounds intraperitoneally 24 hours after virus (Example 1(a)); format: in vivo, BALB/c mice; design: Actual Spleen Weight / Average Spleen Weight: unit not given here; details: Table III; for inhibition in vivo at 0.1 mg / inhibition in vivo at 0.05 mg / inhibition in vivo at 0.2 mg: Mus musculus, ip; for Actual Spleen Weight: single animal; for Pooled Average % Inhibition: pooled over 50, 100, 200, 2 × 100 micrograms
Description: The effects of compositions according to the present invention on infection of mammals with Friend Leukemia Virus (FV) were examined.
Friend Leukemia Virus is an aggressive retrovirus which induces an acute erythroleukemia in sensitive strains of mice such as BALB/c and NIH swiss mice as described in Friend, C. J., Exp. Med. 105: 307-324, 1957; Friend, C. et al. Proc. Natl. Acad. Sci. USA 68: 378-383, 1971; Friend, C. et al. Natl. Cancer Inst. Mongr. 22: 508-552, 1966. The malignant transformation is the result of the combined activities of the Spleen Focus Forming Virus (SFFV) and the ecotropic Murine Friend Leukemia Helper Virus (F-MuLV). The acute erythroleukemia is characterized by hepatosplenomegaly (a marked increase in the size of the spleen and liver) and a severe anemia.
Friend Leukemia Virus was prepared by homogenizing the enlarged spleen of a mouse previously infected with FV, 10 days after intravenous virus injection. The spleen was homogenized in phosphate buffered saline in a volume equal to ten times the weight of the isolated spleen.
The effects of compositions according to the present invention on the increase in spleen size (splenomegaly) of BALB/c mice (Jackson Labs, Bar Harbor, ME) was examined. In these experiments, the virus (10^6 focus forming units--FFU) was inoculated intravenously and 100 micrograms of the compounds indicated in Table II were administered to the mice intraperitoneally 24 hours later. Each compound was administered once to two mice. The animals were sacrificed ten days later and their spleens weighed.
The present assay has been developed from similar assays using hypericin or pseudohypericin and employing higher numbers of experimental animals per group (e.g. 4 animals). It was discovered however that the specificity and sensitivity of this assay are such that an experimental group of two animals is of more than adequate predictive value.
As used in Table II (and subsequent Tables of this Example l(a) and (b), "average percent inhibition" is calculated as follows: [formula] wherein "ASWNC" designates "average spleen weight of negative control"; "ASWE" designates "average spleen weight of experimental (treated) subject"; and "ASWPC" designates "average spleen weight of positive control". Average spleen weight is the numerical average of spleen weights of each experimental group (in Table II each such group includes two members).
In these experiments, the virus (10^6 focus forming units--FFU) was inoculated intravenously, and the indicated doses of the antiviral compounds of this invention were administered to the BALB/c mice intraperitoneally 24 hours later. The animals were then sacrificed ten days later and their spleens weighed.
Pseudohypericin was diluted in phosphate buffered saline with 1% ethanol.
An expanded series of experiments was next performed in which various concentrations (i.e. 50, 100, 200 and 2×100, i.e., 100 micrograms administered twice) of a different set of PAC compounds (numbers 16-29 and 30-36 in Table III below) were administered intraperitoneally each according to the same protocol described above. Compounds 16-29 all had 3-5 fused, aromatic rings and no side groups except for oxygen or hydroxyl groups, whereas compounds 30-36 all had 3 fused aromatic rings and side chains selected from the group of oxygen, hydroxyl and methyl.
When 2 doses of the compounds were given, the second dose was administered 24-48 hours after the first injection. The animals were infected and splenomegaly determined as above for the compounds in Table II. In Table III, "pooled average percent inhibition" is calculated by adding the average percent inhibition for each experiment with the same compound and dividing the sum by the number of experiments (i.e. the number 4). […]

retroviruses (virions) = experiment: Direct inactivation of retroviruses (virions) in vitro (Example 10); format: biochemical, Radiation Leukemia Virus; details: Table IX
Experimental: Supernatants (10 ml/tube) from B10.T(6R) cells (Meruelo et al. J. Exp. Med. 147: 470-487, 1978) chronically infected with Radiation Leukemia Virus (RadLV) were obtained by centrifugation of cells in culture at 4° C., 3500 rpm for 15 minutes. The top 2/3 of the supernatant were removed and aliquots were incubated for 30 minutes on ice with the indicated amounts of hypericin or protohypericin. […] Thereafter, supernatants were centrifuged at 100,000×g using a TI70 rotor (Beckman Instruments) for 1 hour at 4° C. The pellet was […] and analyzed for reverse transcriptase activity as follows.
The reverse transcriptase assay was performed in a volume of 100 microliters containing the following components:
(1) Direct inactivation of retroviruses in vitro, performed as in Example 3 above;
The results presented above in Table IX are presented as EC50 concentrations. These are the effective concentrations which inhibit 50% of the viruses in micromolar concentrations.

[1] = read-out: Average Perdosage % Inhibition, dose 2 × 100 (micrograms) i.p.
[2] = read-out: Average Perdosage % Inhibition, dose 50 (micrograms) i.p.
[3] = read-out: Average Perdosage % Inhibition, dose 100 (micrograms) i.p.
[4] = read-out: Average Perdosage % Inhibition, dose 200 (micrograms) i.p.
[5] = dose 2 × 100 (micrograms) i.p., second dose 24-48 hours later
[6] = dose 2 × 100 (micrograms) i.p., read-out: Average Perdosage % Inhibition
[7] = dose 50 (micrograms) i.p., read-out: Average Perdosage % Inhibition
[8] = dose 100 (micrograms) i.p., read-out: Average Perdosage % Inhibition
[9] = dose 200 (micrograms) i.p., read-out: Average Perdosage % Inhibition

Row | Molecule | inhibition in vivo at 0.1 mg (Friend Leukemia Virus; [1]) | inhibition in vivo at 0.05 mg (Friend Leukemia Virus; [2]) | inhibition in vivo at 0.1 mg (Friend Leukemia Virus; [3]) | inhibition in vivo at 0.2 mg (Friend Leukemia Virus; [4]) | Actual Spleen Weight (Friend Leukemia Virus; [5]) | Average Spleen Weight (Friend Leukemia Virus; dose 2 × 100 (micrograms) i.p.) | Average Spleen Weight (Friend Leukemia Virus; dose 50 (micrograms) i.p.) | Average Spleen Weight (Friend Leukemia Virus; dose 100 (micrograms) i.p.) | Average Spleen Weight (Friend Leukemia Virus; dose 200 (micrograms) i.p.) | Actual Spleen Weight (Friend Leukemia Virus; dose 200 (micrograms) i.p.) | Pooled Average % Inhibition (Friend Leukemia Virus) | inhibition in vivo at 0.1 mg (Friend Leukemia Virus; [6]) | inhibition in vivo at 0.05 mg (Friend Leukemia Virus; [7]) | inhibition in vivo at 0.1 mg (Friend Leukemia Virus; [8]) | inhibition in vivo at 0.2 mg (Friend Leukemia Virus; [9]) | also measured
1 | C=Cc1c2ccccc2cc2ccccc12 [Compound 29, 9-Vinylanthracene] | 15% | 4% | 26% | 21% | 1.3747 | 1.3747 | 1.6517 | 1.2199 | 1.2933 | 1.2933 | 14% | – | – | – | – | –
2 | O=c1c2ccccc2oc2ccccc12 [Compound 31, Xanthone] | 62% | 57% | 58% | 60% | – | 0.9003 | 1.0006 | 0.9806 | 0.9431 | – | 59% | – | – | – | – | –
3 | O=C1c2ccc(O)cc2C(=O)c2ccc(O)cc21 [Compound 32, Anthraflavic acid] | – | – | – | – | – | 0.9325 | 1.5718 | 1.1542 | 0.8593 | – | 50% | 60% | 26% | 49% | 64% | –
4 | O=C1c2ccccc2C(=O)C1c1ccccc1 [Compound 33, 2-phenyl-1,2 inadione] | – | – | – | – | – | 0.9127 | 0.9410 | 1.7763 | 0.7938 | – | 51% | 61% | 60% | 16% | 68% | –
5 | Cc1cc(O)c2c(c1)C(=O)c1cc(O)cc(O)c1C2=O [Compound 34, Emodin] | – | – | – | – | – | 1.2834 | 1.2914 | 1.1333 | 1.6902 | – | 38% | 42% | 41% | 50% | 20% | EC50 (retroviruses (virions)): > 37 µM
6 | Phenylanthracene [Compound 18] | – | – | – | – | 1.4116 and 1.0222 | 1.2169 | 1.1803 | 1.554 | 1.3296 | 1.3797 and 1.2794 | 19% | – | – | – | – | Average Perdosage % Inhibition (Friend Leukemia Virus; dose 2 × 100 (micrograms) i.p.): 26%; Average Perdosage % Inhibition (Friend Leukemia Virus; dose 50 (micrograms) i.p.): 28%; Actual Spleen Weight (Friend Leukemia Virus; dose 50 (micrograms) i.p.): 1.1141 and 1.2464; Average Perdosage % Inhibition (Friend Leukemia Virus; dose 100 (micrograms) i.p.): 3%; Actual Spleen Weight (Friend Leukemia Virus; dose 100 (micrograms) i.p.): 1.6206 and 1.4902; Average Perdosage % Inhibition (Friend Leukemia Virus; dose 200 (micrograms) i.p.): 18%
